These results are taken from PubChem BioAssay (NCI).

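Growth conditions: 96-well plates. Treatment: test compound, 48 hours, 5 concentrations. Analysis: linear interpolation between bracketing concentrations; unreached endpoints set to highest concentration. GI50: concentration for 50% inhibition of growth. The concentration for full growth arrest is given as TGI.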 Bounds are passed on as bounds.

Among the test systems are RPMI-8226 leukemia; SK-MEL-5 melanoma; KM12 colon; ACHN renal; MOLT-4 leukemia; U251 CNS; SF-295 CNS; SK-MEL-28 melanoma; HL-60(TB) leukemia.
Common to all, as to assay: NCI-60 cell line screen, 48 h

In the case of `COC(=O)C1=C(CS(=O)c2ccc([N+](=O)[O-])cc2[N+](=O)[O-])ON(C)C1c1ccccc1` (centres undefined), the TGI in the test with RPMI-8226 leukemia is 46 µM; in the test with SK-MEL-5 melanoma, > 100 µM; with KM12 colon, > 100 µM; in the test on ACHN renal it was > 100 µM; in the test with MOLT-4 leukemia it was 48.5 µM; with U251 CNS, > 78.6 µM. Also, the TGI with SF-295 CNS was > 100 µM; in the test with SK-MEL-28 melanoma, > 100 µM; with HL-60(TB) leukemia, 24.2 µM.

Regarding `CC(=O)c1ccc(NC(=O)C(=O)C(C(=O)c2ccc(Cl)c(Cl)c2)C2OC(=O)c3ccccc32)cc1` (centres undefined), the TGI is 38.1 µM in the test on KM12 colon; 45.5 µM in the test on ACHN renal; > 100 µM in the test with MOLT-4 leukemia; 23 µM in the test with U251 CNS; > 100 µM in the test on HL-60(TB) leukemia.

On to `COc1ccc(-c2cc(-c3cc(C)ccc3O)[nH]c(=O)n2)cc1`, for which the TGI in the test on RPMI-8226 leukemia, in the test with KM12 colon, in the test on ACHN renal, in the test on MOLT-4 leukemia, with U251 CNS and with SF-295 CNS was > 100 µM throughout. The TGI with SK-MEL-28 melanoma and with HL-60(TB) leukemia was > 100 µM each time.

On to `Cc1ccc(C(=O)C#Cc2c[nH]c(=O)[nH]c2=O)cc1`, for which the TGI was 26.5 µM in the test with SK-MEL-5 melanoma; 28.2 µM in the test with KM12 colon; 29 µM in the test on ACHN renal; 23.8 µM in the test with MOLT-4 leukemia; 28.2 µM with U251 CNS; > 100 µM with SF-295 CNS. Besides, the TGI is 30.8 µM with SK-MEL-28 melanoma and 35.1 µM in the test on HL-60(TB) leukemia.

As to `CCOC(=O)C(=O)Nc1c(C)cccc1C(C)C`, the TGI with RPMI-8226 leukemia, in the test with SK-MEL-5 melanoma, in the test on KM12 colon, in the test on ACHN renal, with MOLT-4 leukemia and in the test with U251 CNS was > 100 µM throughout. The TGI with SF-295 CNS, in the test on SK-MEL-28 melanoma and in the test with HL-60(TB) leukemia was > 100 µM in each case.

Regarding `COc1cc(Nc2nc3cc(C(F)(F)F)ccc3nc2-c2ccccc2)cc(OC)c1OC`, the TGI in the test on SK-MEL-5 melanoma, with KM12 colon, in the test with ACHN renal, in the test on MOLT-4 leukemia, in the test on U251 CNS and in the test with SF-295 CNS was > 100 µM throughout. Moreover, the TGI with SK-MEL-28 melanoma and with HL-60(TB) leukemia was > 100 µM in each case.

`COc1ccccc1C(N)c1ccccc1` (centres undefined): the TGI in the test on RPMI-8226 leukemia, in the test on SK-MEL-5 melanoma, in the test with KM12 colon, in the test with ACHN renal, in the test on MOLT-4 leukemia and with U251 CNS was > 100 µM in each case. In addition, the TGI in the test with SF-295 CNS, in the test with SK-MEL-28 melanoma and in the test with HL-60(TB) leukemia was > 100 µM in each case.

For the molecule `O=NN/C(=C1\Nc2ccc([N+](=O)[O-])cc2NC1=O)C(O)c1ccc([N+](=O)[O-])cc1` (centres undefined), the TGI in the test with RPMI-8226 leukemia, in the test on SK-MEL-5 melanoma, in the test with KM12 colon, in the test with ACHN renal, in the test with MOLT-4 leukemia and in the test on U251 CNS was > 100 µM each time. The TGI in the test on SF-295 CNS, in the test on SK-MEL-28 melanoma and in the test with HL-60(TB) leukemia was > 100 µM in each case.

Consider `c1ccc(CN2CCCCC(Sc3ccccc3)CC2)cc1` (centres undefined), for which the TGI with RPMI-8226 leukemia was 38.9 µM; in the test with SK-MEL-5 melanoma, 34.1 µM; in the test on KM12 colon, > 100 µM; in the test on ACHN renal, > 100 µM; in the test with MOLT-4 leukemia it was 50.7 µM; in the test on U251 CNS, 31.7 µM. In addition, the TGI in the test on SF-295 CNS is > 100 µM; with SK-MEL-28 melanoma it was > 100 µM; with HL-60(TB) leukemia, 46.3 µM.

As to `COC1OC(COS(=O)(=O)c2ccc(C)cc2)C(O)C(OS(=O)(=O)c2ccc(C)cc2)C1OS(=O)(=O)c1ccc(C)cc1` (centres undefined), the TGI with RPMI-8226 leukemia, in the test with SK-MEL-5 melanoma, with KM12 colon, in the test with ACHN renal, in the test on MOLT-4 leukemia and in the test with U251 CNS was > 100 µM throughout. Further, the TGI in the test on SF-295 CNS, in the test with SK-MEL-28 melanoma and with HL-60(TB) leukemia was > 100 µM each time.

For the molecule `Cc1c(C(=O)/C=C/c2c(Cl)cccc2Cl)c(=O)n(-c2ccccc2)n1C`, the TGI in the test with KM12 colon was 44.8 µM; in the test with ACHN renal, > 100 µM; in the test with MOLT-4 leukemia it was > 100 µM; in the test with U251 CNS, 2.98 µM; in the test on SF-295 CNS, 75.9 µM; with SK-MEL-28 melanoma it was > 100 µM.

`COc1ccc(C(=O)CC(=O)C(=O)Nc2ccc(C)c(C)c2)cc1`: the TGI was > 68 µM in the test with RPMI-8226 leukemia; > 100 µM with SK-MEL-5 melanoma; > 100 µM in the test with KM12 colon; > 100 µM with ACHN renal; > 100 µM in the test on MOLT-4 leukemia; > 100 µM with U251 CNS. For the same molecule, the TGI with SF-295 CNS is > 100 µM; in the test on SK-MEL-28 melanoma it was > 100 µM; in the test with HL-60(TB) leukemia, > 64.3 µM.

As for `CC(=O)OC1CC2C(C)(C)C(=O)C=C[C@]2(C)C2CCC3(C)C(c4ccoc4)[C@@H](O)[C@H]4O[C@]43[C@]12C` (some centres undefined), the TGI stood at 67.1 µM in the test with RPMI-8226 leukemia; 34.2 µM with SK-MEL-5 melanoma; 35.1 µM with KM12 colon; 50 µM with ACHN renal; 88.8 µM with MOLT-4 leukemia; 27.8 µM with U251 CNS. In addition, the TGI in the test on SF-295 CNS stood at 42.5 µM; with SK-MEL-28 melanoma, 40.5 µM; in the test with HL-60(TB) leukemia, 46.7 µM.

Regarding `NC(=O)Nc1c([N+](=O)[O-])cc(C(F)(F)F)cc1[N+](=O)[O-]`, the TGI with RPMI-8226 leukemia, in the test on SK-MEL-5 melanoma, in the test with KM12 colon, in the test on ACHN renal, in the test on MOLT-4 leukemia and with U251 CNS was > 100 µM throughout. In addition, the TGI with SF-295 CNS, in the test with SK-MEL-28 melanoma and in the test with HL-60(TB) leukemia was > 100 µM each time.

Regarding `COC(=O)C1=C(c2ccc3c(c2)OCO3)OC(c2ccc3c(c2)OCO3)C1` (centres undefined), the TGI in the test with RPMI-8226 leukemia, in the test with SK-MEL-5 melanoma, with KM12 colon, in the test on ACHN renal, with MOLT-4 leukemia and in the test with U251 CNS was > 100 µM each time. The TGI in the test on SF-295 CNS, in the test with SK-MEL-28 melanoma and in the test on HL-60(TB) leukemia was > 100 µM in each case.

For the molecule `O=C1OC(c2ccccc2)=N/C1=C\c1cc(Cl)ccc1Cl`, the TGI in the test on RPMI-8226 leukemia was > 100 µM; with SK-MEL-5 melanoma, > 100 µM; in the test on KM12 colon, > 100 µM; in the test with ACHN renal, > 100 µM; with MOLT-4 leukemia, 53.7 µM; with U251 CNS it was > 100 µM. The TGI is > 100 µM in the test with SF-295 CNS, > 100 µM in the test on SK-MEL-28 melanoma and 35.3 µM with HL-60(TB) leukemia.

With `CCOC(=O)N[C@@H]1C2CC(=O)C(O2)[C@@H]1OC` (some centres undefined), the TGI in the test on RPMI-8226 leukemia, with SK-MEL-5 melanoma, in the test on KM12 colon, in the test on ACHN renal, with MOLT-4 leukemia and in the test on U251 CNS was > 100 µM in each case. For the same molecule, the TGI with SF-295 CNS, in the test on SK-MEL-28 melanoma and in the test on HL-60(TB) leukemia was > 100 µM each time.

As to `O=C(O)c1cccc2cccc(C(=O)O)c12.[Hg]`, the GI50 with SK-MEL-5 melanoma was 14 µM; in the test on KM12 colon, 18.3 µM; with ACHN renal, 17.7 µM; in the test with MOLT-4 leukemia, 19.6 µM; with U251 CNS, 12.2 µM; in the test with SF-295 CNS it was 17.8 µM. Moreover, the GI50 in the test with SK-MEL-28 melanoma was 14.9 µM; in the test with HL-60(TB) leukemia, 19.3 µM. Moreover, the TGI in the test on SK-MEL-5 melanoma was found to be 27 µM; with KM12 colon it was 32.4 µM; in the test with ACHN renal it was 31.8 µM; in the test on MOLT-4 leukemia, 42.7 µM; in the test on U251 CNS, 26.8 µM; with SF-295 CNS, 32.2 µM. The results for the TGI in the test with SK-MEL-28 melanoma and with HL-60(TB) leukemia were 29.3 µM and 42.2 µM, respectively.

As to `COC(=O)C(Cc1ccccc1)NC(=O)Cn1ccnc1[N+](=O)[O-]` (centres undefined), the TGI with RPMI-8226 leukemia, in the test on SK-MEL-5 melanoma, with KM12 colon, in the test with ACHN renal, with MOLT-4 leukemia and with U251 CNS was > 100 µM throughout. The TGI with SF-295 CNS, with SK-MEL-28 melanoma and with HL-60(TB) leukemia was > 100 µM throughout.

In the case of `COc1ccc(-c2nc(N3CCOCC3)c3sc(CN(C)c4ncc(C(=O)NO)cn4)cc3n2)cn1`, the GI50 is < 0.01 µM with RPMI-8226 leukemia; < 0.01 µM in the test with ACHN renal; < 0.01 µM in the test with SF-295 CNS; 0.0129 µM in the test on SK-MEL-28 melanoma; < 0.01 µM in the test with HL-60(TB) leukemia. Besides, the TGI in the test on ACHN renal was 0.0345 µM; with SF-295 CNS, 0.042 µM; with SK-MEL-28 melanoma, 0.136 µM; in the test with HL-60(TB) leukemia, 1.06 µM.

Consider `CC1=CC(=O)c2c(C=O)c(O)c(O)c(C(C)C)c2C1=O`, for which the TGI in the test on RPMI-8226 leukemia is > 62.8 µM; in the test on SK-MEL-5 melanoma, 65 µM; in the test on ACHN renal it was 32.6 µM; in the test with MOLT-4 leukemia, 66.3 µM; in the test on U251 CNS, 47.4 µM; with SK-MEL-28 melanoma, > 100 µM. For the same molecule, in the test with HL-60(TB) leukemia, the TGI was > 79.5 µM.
